ChEMBL document CHEMBL4431337, “Synthesis and bioactivities of novel pyrazole oxime derivatives containing a 1,2,3-thiadiazole moiety” (Bioorg Med Chem Lett, 2016)

Key:
HCT-116 = test: Cytotoxicity against human HCT116 cells assessed as inhibition of cell growth after 48 hrs by MTT assay; type: functional, cell-based; conditions: HCT-116, 48 h
PANC-1 = test: Cytotoxicity against human PANC1 cells assessed as inhibition of cell growth after 48 hrs by MTT assay; type: functional, cell-based; conditions: PANC-1, 48 h
Aphis craccivora [1] = test: Insecticidal activity against Aphis craccivora assessed as mortality at 200 ug/ml pre-incubated with horsebean shoot with aphids for 2 secs and measured 48 hrs post dose by foliar application method; type: functional
SGC-7901 = test: Cytotoxicity against human SGC7901 cells assessed as inhibition of cell growth after 48 hrs by MTT assay; type: functional, cell-based; conditions: SGC-7901, 48 h
Aphis craccivora [2] = test: Insecticidal activity against Aphis craccivora assessed as mortality at 100 ug/ml pre-incubated with horsebean shoot with aphids for 2 secs and measured 48 hrs post dose by foliar application method; type: functional
Plutella xylostella [3] = test: Insecticidal activity against Plutella xylostella assessed as mortality at 100 ug/ml pre-incubated with cabbage leaves for 2 to 3 secs and measured 48 hrs post dose by leaf disc assay; type: functional; conditions: foliar
Aphis craccivora [4] = test: Insecticidal activity against Aphis craccivora assessed as mortality at 50 ug/ml pre-incubated with horsebean shoot with aphids for 2 secs and measured 48 hrs post dose by foliar application method; type: functional
Plutella xylostella [5] = test: Insecticidal activity against Plutella xylostella assessed as mortality at 200 ug/ml pre-incubated with cabbage leaves for 2 to 3 secs and measured 48 hrs post dose by leaf disc assay; type: functional; conditions: foliar
Huh-7 = test: Cytotoxicity against human HuH7 cells assessed as inhibition of cell growth after 48 hrs by MTT assay; type: functional, cell-based; conditions: Huh-7, 48 h
Tetranychus cinnabarinus [6] = test: Acaricidal activity against Tetranychus cinnabarinus assessed as mortality at 200 ug/ml pre-incubated with mite-infested Sieva bean plants for 3 secs and measured 48 hrs post dose; type: functional
Tetranychus cinnabarinus [7] = test: Acaricidal activity against Tetranychus cinnabarinus assessed as mortality at 50 ug/ml pre-incubated with mite-infested Sieva bean plants for 3 secs and measured 48 hrs post dose; type: functional
Plutella xylostella [8] = test: Insecticidal activity against Plutella xylostella assessed as mortality at 50 ug/ml pre-incubated with cabbage leaves for 2 to 3 secs and measured 48 hrs post dose by leaf disc assay; type: functional; conditions: foliar
Tetranychus cinnabarinus [9] = test: Acaricidal activity against Tetranychus cinnabarinus assessed as mortality at 100 ug/ml pre-incubated with mite-infested Sieva bean plants for 3 secs and measured 48 hrs post dose; type: functional

`Cc1nnsc1CO/N=C/c1c(C)nn(C)c1Oc1ccc(C(C)(C)C)cc1` showed an IC50 (HCT-116) of 33.5 µM, an IC50 (PANC-1) of over 50 µM and a mortality at 200 µg/mL (Aphis craccivora [1]) of 95%. For the same compound, the IC50 (SGC-7901) was over 50 µM, the mortality at 100 µg/mL (Aphis craccivora [2]) was 80% and the mortality at 100 µg/mL (Plutella xylostella [3]) was 0%. It also gave a mortality at 50 µg/mL (Aphis craccivora [4]) of 50%, a mortality at 200 µg/mL (Plutella xylostella [5]) of 100% and an IC50 (Huh-7) of over 50 µM. For the same compound, the mortality at 200 µg/mL (Tetranychus cinnabarinus [6]) was 0%.

`Cc1nnsc1CO/N=C/c1c(C)nn(C)c1Oc1cccc(C(F)(F)F)c1` gave an IC50 (HCT-116) of 10.3 µM, an IC50 (PANC-1) of over 50 µM and a mortality at 200 µg/mL (Aphis craccivora [1]) of 62%. For the same compound, the IC50 (SGC-7901) was 12.4 µM, the mortality at 100 µg/mL (Aphis craccivora [2]) was 55% and the mortality at 50 µg/mL (Aphis craccivora [4]) was 31%. It also gave a mortality at 200 µg/mL (Plutella xylostella [5]) of 45%, an IC50 (Huh-7) of over 50 µM and a mortality at 200 µg/mL (Tetranychus cinnabarinus [6]) of 0%.

For `CCc1nnsc1CO/N=C/c1c(C)nn(C)c1Oc1ccc(C)cc1`, the IC50 (HCT-116) was over 50 µM, the IC50 (PANC-1) was over 50 µM and the mortality at 200 µg/mL (Aphis craccivora [1]) was 0%. The IC50 (SGC-7901) was 19.8 µM, the mortality at 200 µg/mL (Plutella xylostella [5]) was 0% and the IC50 (Huh-7) was over 50 µM. It also gave a mortality at 200 µg/mL (Tetranychus cinnabarinus [6]) of 0%.

For `Cc1nnsc1CO/N=C/c1c(C)nn(C)c1Oc1ccc(I)cc1`, the IC50 (HCT-116) was 43.8 µM, the mortality at 50 µg/mL (Tetranychus cinnabarinus [7]) was 0% and the IC50 (PANC-1) was over 50 µM. It also gave a mortality at 200 µg/mL (Aphis craccivora [1]) of 95%, an IC50 (SGC-7901) of over 50 µM and a mortality at 100 µg/mL (Aphis craccivora [2]) of 70%. For the same compound, the mortality at 100 µg/mL (Plutella xylostella [3]) was 62%, the mortality at 50 µg/mL (Aphis craccivora [4]) was 41% and the mortality at 50 µg/mL (Plutella xylostella [8]) was 60%. The mortality at 200 µg/mL (Plutella xylostella [5]) was 64%, the IC50 (Huh-7) was over 50 µM and the mortality at 100 µg/mL (Tetranychus cinnabarinus [9]) was 60%. It also gave a mortality at 200 µg/mL (Tetranychus cinnabarinus [6]) of 90%.

`CCCc1nnsc1CO/N=C/c1c(C)nn(C)c1Oc1ccc(F)cc1` gave an IC50 (HCT-116) of 7.06 µM, an IC50 (PANC-1) of over 50 µM and a mortality at 200 µg/mL (Aphis craccivora [1]) of 0%. It also gave an IC50 (SGC-7901) of 8.64 µM, a mortality at 200 µg/mL (Plutella xylostella [5]) of 0% and an IC50 (Huh-7) of over 50 µM. It also gave a mortality at 200 µg/mL (Tetranychus cinnabarinus [6]) of 0%.

`CCCc1nnsc1CO/N=C/c1c(C)nn(C)c1Oc1ccc(Cl)cc1` showed an IC50 (HCT-116) of 19.2 µM, an IC50 (PANC-1) of over 50 µM and a mortality at 200 µg/mL (Aphis craccivora [1]) of 0%. It also gave an IC50 (SGC-7901) of 18.6 µM, a mortality at 200 µg/mL (Plutella xylostella [5]) of 0% and an IC50 (Huh-7) of over 50 µM. It also gave a mortality at 200 µg/mL (Tetranychus cinnabarinus [6]) of 0%.

With `Cc1ccc(Oc2c(/C=N/OCc3snnc3C)c(C)nn2C)cc1` the IC50 (HCT-116) was 13.8 µM, the IC50 (PANC-1) was over 50 µM and the mortality at 200 µg/mL (Aphis craccivora [1]) was 100%. For the same compound, the IC50 (SGC-7901) was 12.8 µM, the mortality at 100 µg/mL (Aphis craccivora [2]) was 90% and the mortality at 100 µg/mL (Plutella xylostella [3]) was 0%. The mortality at 50 µg/mL (Aphis craccivora [4]) was 58%, the mortality at 200 µg/mL (Plutella xylostella [5]) was 100% and the IC50 (Huh-7) was over 50 µM. The mortality at 200 µg/mL (Tetranychus cinnabarinus [6]) was 0%.

In the case of `Cc1nnsc1CO/N=C/c1c(C)nn(C)c1Oc1cc(F)cc(F)c1`, the IC50 (HCT-116) is reported as 8.12 µM, the IC50 (PANC-1) is reported as over 50 µM and the mortality at 200 µg/mL (Aphis craccivora [1]) is reported as 90%. The IC50 (SGC-7901) was 9.41 µM, the mortality at 100 µg/mL (Aphis craccivora [2]) was 75% and the mortality at 100 µg/mL (Plutella xylostella [3]) was 0%. For the same compound, the mortality at 50 µg/mL (Aphis craccivora [4]) was 45%, the mortality at 200 µg/mL (Plutella xylostella [5]) was 100% and the IC50 (Huh-7) was over 50 µM. It also gave a mortality at 200 µg/mL (Tetranychus cinnabarinus [6]) of 0%.

`Cc1nnsc1CO/N=C/c1c(C)nn(C)c1Oc1ccc(F)cc1` showed an IC50 (HCT-116) of 30.2 µM, an IC50 (PANC-1) of over 50 µM and a mortality at 200 µg/mL (Aphis craccivora [1]) of 99%. The IC50 (SGC-7901) was over 50 µM, the mortality at 100 µg/mL (Aphis craccivora [2]) was 90% and the mortality at 100 µg/mL (Plutella xylostella [3]) was 0%. It also gave a mortality at 50 µg/mL (Aphis craccivora [4]) of 60%, a mortality at 200 µg/mL (Plutella xylostella [5]) of 100% and an IC50 (Huh-7) of over 50 µM. It also gave a mortality at 200 µg/mL (Tetranychus cinnabarinus [6]) of 0%.

`Cc1nn(C)c(Oc2ccccc2)c1/C=N/OCc1ccc(C(=O)OC(C)(C)C)cc1` [FENPYROXYMATE] gave a mortality at 50 µg/mL (Tetranychus cinnabarinus [7]) of 100%, a mortality at 100 µg/mL (Tetranychus cinnabarinus [9]) of 100% and a mortality at 200 µg/mL (Tetranychus cinnabarinus [6]) of 100%.

For `O=c1[nH]cc(F)c(=O)[nH]1` [FLUOROURACIL], the IC50 (HCT-116) was 29.5 µM and the IC50 (SGC-7901) was 56.1 µM.

`O=[N+]([O-])/N=C1\NCCN1Cc1ccc(Cl)nc1` [IMIDACLOPRID] gave a mortality at 200 µg/mL (Aphis craccivora [1]) of 100%, a mortality at 100 µg/mL (Aphis craccivora [2]) of 100% and a mortality at 50 µg/mL (Aphis craccivora [4]) of 100%.

`FC(F)(F)c1ccc(OCCCOc2c(Cl)cc(OCC=C(Cl)Cl)cc2Cl)nc1` [PYRIDALYL] gave a mortality at 100 µg/mL (Plutella xylostella [3]) of 100%, a mortality at 50 µg/mL (Plutella xylostella [8]) of 100% and a mortality at 200 µg/mL (Plutella xylostella [5]) of 100%.

`CNC(=O)c1cc(Oc2ccc(NC(=O)Nc3ccc(Cl)c(C(F)(F)F)c3)cc2)ccn1` [SORAFENIB] gave an IC50 (PANC-1) of 11.5 µM.
